Patent US20260015409A1, “RECEPTOR-MEDIATED ENDOCYTOSIS FOR TARGETED INTERNALIZATION AND DEGRADATION OF MEMBRANE PROTEINS AND CARGOS” (Dana-Farber Cancer Institute, Inc., priority 2022, published 2026)
“Also recorded” adds a separate entry of the source. Where a SMILES comes first, the peptide text is derived from it. The star is where a group is joined. Cbz = O=C(OCc1ccccc1)*

Tests used:
[1] = molecular target: T1, EGFR (Homo sapiens, UniProt P00533); assay: EGFR degradation by Western blot in A549 lung carcinoma cells; format: cell-based; conditions: A549 cells treated with EGFR-TransTACs; 1 μM inhibitor
T1 construct: endogenous in cells; host or cells: A549
Procedure: Targeted therapy with tyrosine kinase inhibitors is a standard treatment for lung cancer with EGFR mutations. We reasoned that co-targeting an EGFR and a TfR receptor on lung cancer cells could lead to EGFR inhibition while maintaining high tumor specificity (FIG. 30A). We generated an anti-EGFR affibody*H7*GFLG-VR TransTAC. Incubation of the molecule with a human lung adenocarcinoma A549 cell line led to >90% EGFR degradation (FIG. 30B). […] This specificity results from higher TfR expression in tumor cells (FIG. 27A-C).
Next, we aimed to target epidermal growth factor receptor (EGFR), a receptor tyrosine kinase that plays an important role in the development and progression of various types of cancers such as lung and brain. An affibody (Friedman, Mikaela, et al. “Directed evolution to low nanomolar affinity of a tumor-targeting epidermal growth factor receptor-binding affibody molecule.” Journal of molecular biology 376.5, 2008: 1388-1402) was used to bind EGFR and create an EGFR-TransTAC.
We next investigated the cellular mechanism underlying TransTAC-mediated protein degradation. Two primary pathways involved in the degradation of cellular proteins were tested: the lysosomal pathway and the proteosome pathway. A549 cells were treated either with bafilomycin, a vacuolar proton pump inhibitor that inhibits lysosomal acidification, or MG132, a proteasomal inhibitor.

[2] = tested on: PC9-GR4 cells; assay: MTT cell viability assay, PC9-GR4 cells; format: cell-based
[3] = tested on: PC9 GR4 C797S cells; assay: MTT cell viability assay, PC9 GR4 C797S cells
[4] = molecular target: T2, CD20 (Homo sapiens, UniProt P11836); assay: CD20 degradation in Raji cells; format: cell-based; conditions: Western blot
T2 construct: endogenous in cells; host or cells: Raji
T2 sequence (P11836 1-297): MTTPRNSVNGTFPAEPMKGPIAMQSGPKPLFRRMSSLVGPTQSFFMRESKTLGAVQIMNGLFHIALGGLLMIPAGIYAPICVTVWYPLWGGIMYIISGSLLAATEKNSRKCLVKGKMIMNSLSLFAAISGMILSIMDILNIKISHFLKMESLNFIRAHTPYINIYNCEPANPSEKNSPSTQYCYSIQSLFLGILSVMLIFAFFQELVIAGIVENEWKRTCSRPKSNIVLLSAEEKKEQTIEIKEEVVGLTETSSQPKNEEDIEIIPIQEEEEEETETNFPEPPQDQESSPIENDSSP
Text: Cluster of differentiate 20 (CD20) is a B cell-specific surface marker with four transmembrane domains and an unknown function. Knocking down cell surface CD20s with a degrader can be valuable. A CD20-TransTAC was created using a Fab format of Rituximab, the first clinically approved CD20 antibody, to bind CD20.

T1 sequence (P00533 25-1210): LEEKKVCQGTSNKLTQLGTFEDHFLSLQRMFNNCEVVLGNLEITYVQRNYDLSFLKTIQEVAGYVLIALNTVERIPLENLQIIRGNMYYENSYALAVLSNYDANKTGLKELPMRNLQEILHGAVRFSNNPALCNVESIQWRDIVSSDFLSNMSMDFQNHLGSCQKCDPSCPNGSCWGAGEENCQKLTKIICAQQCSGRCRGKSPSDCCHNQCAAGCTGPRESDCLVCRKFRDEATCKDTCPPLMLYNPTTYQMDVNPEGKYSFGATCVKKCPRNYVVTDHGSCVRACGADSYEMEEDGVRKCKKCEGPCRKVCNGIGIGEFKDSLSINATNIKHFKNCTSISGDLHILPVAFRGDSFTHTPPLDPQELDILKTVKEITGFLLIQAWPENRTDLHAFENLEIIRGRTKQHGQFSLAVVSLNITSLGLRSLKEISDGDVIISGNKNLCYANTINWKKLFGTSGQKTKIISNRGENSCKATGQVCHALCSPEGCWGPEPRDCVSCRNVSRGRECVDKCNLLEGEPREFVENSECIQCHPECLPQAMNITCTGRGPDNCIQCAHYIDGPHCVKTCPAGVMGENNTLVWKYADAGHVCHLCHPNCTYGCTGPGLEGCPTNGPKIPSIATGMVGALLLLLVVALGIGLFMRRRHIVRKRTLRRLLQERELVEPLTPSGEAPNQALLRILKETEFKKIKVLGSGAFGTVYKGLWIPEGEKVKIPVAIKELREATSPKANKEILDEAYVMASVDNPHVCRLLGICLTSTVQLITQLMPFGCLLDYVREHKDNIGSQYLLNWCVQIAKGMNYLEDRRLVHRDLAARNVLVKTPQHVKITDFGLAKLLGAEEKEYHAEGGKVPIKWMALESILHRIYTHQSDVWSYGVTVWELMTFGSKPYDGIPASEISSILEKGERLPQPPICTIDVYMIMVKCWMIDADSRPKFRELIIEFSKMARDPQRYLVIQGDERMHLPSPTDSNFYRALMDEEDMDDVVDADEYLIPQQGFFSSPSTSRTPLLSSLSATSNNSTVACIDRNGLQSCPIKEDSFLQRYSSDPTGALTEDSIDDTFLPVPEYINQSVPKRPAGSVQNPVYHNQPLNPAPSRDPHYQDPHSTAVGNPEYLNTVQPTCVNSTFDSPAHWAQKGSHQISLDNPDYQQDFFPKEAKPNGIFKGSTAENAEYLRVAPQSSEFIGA

Row | IC50 [2] [nM] | Compound | effect of inhibitor on TransTAC-mediated EGFR degradation [1] | other results
1 | – | CC(C)C[C@@H](C=O)NC(=O)[C@H](CC(C)C)NC(=O)[C@H](CC(C)C)NC(=O)OCc1ccccc1 [MG132] (Cbz-Leu-Leu-Leu-aldehyde) | sensitive; also recorded: much less significant effect | –
2 | 168 | CN(C)C/C=C/C(=O)Nc1cc2c(Nc3ccc(F)c(Cl)c3)ncnc2cc1O[C@H]1CCOC1 [afatinib] | – | –
3 | – | CO/C1=C\C(C)=C\[C@@H](C)[C@@H](O)[C@@H](C)C/C(C)=C/C=C/[C@H](OC)[C@@H]([C@@H](C)[C@@H](O)[C@H](C)[C@@]2(O)C[C@@H](O)[C@H](C)[C@@H](C(C)C)O2)OC1=O [bafilomycin] | sensitive; also recorded: prevented TransTAC-mediated EGFR degradation; also recorded: fully inhibited | –
4 | 207 | C=CC(=O)Nc1cc(Nc2nccc(-c3cn(C)c4ccccc34)n2)c(OC)cc1N(C)CCN(C)C [osimertinib] | – | inhibition of cell viability [3]: did not respond
5 | – | rituximab-scFv-Fc control: rituximab scFv-Fc control without TfR binder | – | CD20 degradation [4]: does not lead to significant CD20 degradation
